# From PubChem BioAssay (NCI)
#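 Results reflect a 48-hour exposure of cells in 96-well plates to compound at five concentrations. TGI: concentration producing complete growth inhibition.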
# Columns and labels:
# Test in all cases: inhibition of tumour cell growth, NCI panel, 48 h
# [1] = test system: MCF7 breast
# [2] = test system: NCI-H226 lung
# [3] = test system: A498 renal
# [4] = test system: TK-10 renal
# [5] = test system: SK-OV-3 ovarian
# [6] = test system: SW-620 colon
# [7] = test system: PC-3 prostate
# [8] = test system: MDA-N
# [9] = test system: HOP-62 NSCLC
# [10] = test system: NCI-H460 lung
# [11] = test system: SK-MEL-28 melanoma
# [12] = test system: SN12C renal
# [13] = test system: M14 melanoma
# [14] = test system: MALME-3M melanoma
# [15] = test system: COLO 205 colon
# [16] = test system: ACHN renal
# [17] = test system: UACC-257 melanoma
# [18] = test system: LOX IMVI melanoma
# [19] = test system: OVCAR-5 ovarian
# [20] = test system: U251 CNS
Compound,TGI [1] [µM],TGI [2] [µM],TGI [3] [µM],TGI [4] [µM],TGI [5] [µM],TGI [6] [µM],TGI [7] [µM],TGI [8] [µM],TGI [9] [µM],TGI [10] [µM],TGI [11] [µM],TGI [12] [µM],TGI [13] [µM],TGI [14] [µM],TGI [15] [µM],TGI [16] [µM],TGI [17] [µM],TGI [18] [µM],TGI [19] [µM],TGI [20] [µM]
C=C(C)C12CC3CC/C(=N/O)C(C1)C3(N1CCOCC1)C/C2=N/O (stereo not given),> 100,> 100,> 100,> 100,> 100,> 100,> 100,> 100,> 100,> 100,> 100,> 100,> 100,> 100,> 100,> 100,> 100,> 100,> 100,> 100
CCOC(=O)c1c(N2CCCC2)[nH]c(=O)c(C(c2cccs2)c2c(O)c(C(=O)OCC)c(N3CCCC3)[nH]c2=O)c1O,> 100,> 100,> 100,> 100,> 100,> 100,> 100,> 100,> 100,> 100,> 100,> 100,> 100,> 100,> 100,> 100,> 100,> 100,> 100,> 100
Cc1cc2c(cc1Cl)SC(NNc1ccc([N+](=O)[O-])cc1)=NS2(=O)=O,> 10,> 10,> 10,> 10,> 10,> 10,> 10,> 10,> 10,> 10,> 10,> 10,> 10,> 10,> 10,> 10,> 10,> 10,> 10,> 10
CCOP(=O)(OCC)/C(C#N)=C/c1c[nH]c2ccccc12,> 100,> 100,> 100,> 100,> 100,> 100,> 100,> 100,> 100,> 100,> 100,> 100,> 100,> 100,> 100,> 100,> 100,> 100,> 100,> 100
O=C1c2ccccc2C(=O)c2oc(Br)cc21,1.96,3.22,3.49,6.15,6.61,1.09,11.1,0.267,4.05,2.64,0.934,2.22,0.311,0.274,3.47,3.22,0.784,> 100,3.16,2.64
O=c1[nH]c2c(c(=O)[nH]1)SSC2,> 54.3,41.1,52,29.9,50.9,29.9,> 71.1,3.17,23.5,27.2,18.7,7.95,4.91,10.1,50.7,> 67.5,14.8,6.24,32.4,30.1
